Consider 25 compounds from patent US20210238184A1, “THERAPEUTIC COMPOUNDS” (Genentech, Inc., priority 2018, published 2021).

One assay addresses TEAD2 YAP50-100 (Homo sapiens, UniProt Q15562). The experiment in a line: TEAD2:YAP50-100 protein-protein interaction HTRF (TR-FRET) assay. The note with it: His-tagged TEAD YAP binding domain (aa 217-447), biotinylated YAP peptide aa 50-100; 30 min pre-incubation, 60 min at room temperature; read-out: TEAD2 YAP50-100 HTRF WuXi EC50. As to the method:
(§1) Purified His-tagged TEAD protein (YAP Binding Domain, amino acids 217-447) is pre-incubated with Europium labelled anti-His antibody tracer (Perkin Elmer Cat #AD0110). Small molecule Inhibitors are then incubated with the TEAD-Eu protein complex for 30 minutes to allow for binding to TEAD protein. Biotinylated YAP peptide (AA's 50-100) that has been pre-incubated with streptavidin x1665 acceptor (CIS-Bio Cat #610SAXAC) is added to the compound-TEAD mix. The TEAD-YAP-inhibitor mixture is then incubated for 60 minutes at room temperature. All reactions are carried out in a polystyrene plate. After 60 minutes, the plate is read on a plate reader using TR-FRET mode with wavelengths of 665 nm/615 nm. If YAP binds to TEAD as expected, a TR-FRET signal results from the proximity of YAP and TEAD after binding. If an inhibitor such as peptide 17 (Selleckchem Cat #S8164) interferes with YAP-TEAD binding, the disruption of the YAP:TEAD interaction results in a decrease in TR-FRET signal. The potency of compounds as YAP:TEAD protein-protein interaction (PPi) inhibitors is determined by an IC50 or EC50 value generated using a non-linear four parameter curve fit.
A general note: TR-FRET usually uses a lanthanide donor and a delayed reading to cut background.

The target of another assay is TEAD3 YAP50-100 (Homo sapiens, UniProt Q99594). Briefly: TEAD3:YAP50-100 protein-protein interaction HTRF (TR-FRET) assay. The following applies: His-tagged TEAD YAP binding domain (aa 217-447), biotinylated YAP peptide aa 50-100; 30 min pre-incubation, 60 min at room temperature; read-out: TEAD3 YAP50-100 HTRF WuXi EC50. As to the method: as §1
Sequence of TEAD3 YAP50-100 (Q99594 216-435 limits assumed): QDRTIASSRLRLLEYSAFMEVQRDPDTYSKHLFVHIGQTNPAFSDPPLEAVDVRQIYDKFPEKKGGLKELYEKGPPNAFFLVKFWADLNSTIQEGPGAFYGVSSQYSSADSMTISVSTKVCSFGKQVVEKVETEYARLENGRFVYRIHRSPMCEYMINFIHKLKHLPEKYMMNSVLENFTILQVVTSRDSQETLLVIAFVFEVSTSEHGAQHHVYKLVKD

Sequence of TEAD2 YAP50-100 (Q15562 217-447): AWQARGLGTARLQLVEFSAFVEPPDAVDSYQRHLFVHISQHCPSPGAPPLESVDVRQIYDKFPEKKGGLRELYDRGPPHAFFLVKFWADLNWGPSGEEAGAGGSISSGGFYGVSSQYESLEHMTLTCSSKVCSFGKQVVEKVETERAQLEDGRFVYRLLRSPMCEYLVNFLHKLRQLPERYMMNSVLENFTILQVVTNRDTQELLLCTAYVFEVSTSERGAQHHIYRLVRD

As a reminder, the EC50 is the concentration that produces a half-maximal response. Regarding `CCOC(=O)c1cnn2c(=O)cc(-c3ccc(C4CCCC4(C)C)cc3)[nH]c12` (single isomer, unassigned) [Example 19], the values for the EC50 at TEAD2 YAP50-100 and on TEAD3 YAP50-100 were 0.27 µM and 0.037 µM, respectively.

As for `CCOC(=O)c1cnn2c(=O)cc(-c3ccc(C4CCCC4(C)C)cc3)[nH]c12` (single isomer, unassigned) [Example 20], the EC50 at TEAD2 YAP50-100 was 0.187 µM; at TEAD3 YAP50-100, 0.06 µM.

`CN(C)C(=O)c1cnn2c(=O)cc(-c3ccc(C4CCCC4(C)C)cc3)[nH]c12` (single isomer, unassigned) [Example 21]: the EC50 at TEAD2 YAP50-100 came to 0.22 µM; on TEAD3 YAP50-100, 0.021 µM.

Take `CN(C)C(=O)c1cnn2c(=O)cc(-c3ccc(C4CCCC4(C)C)cc3)[nH]c12` (single isomer, unassigned) [Example 22]: the EC50 amounted to 0.378 µM at TEAD2 YAP50-100 and 0.042 µM on TEAD3 YAP50-100.

With `C[C@H]1[C@@H](CF)CN1C(=O)c1cnn2c(=O)cc(-c3ccc(C4CCCCC4)cc3)[nH]c12` (single isomer, unassigned) [Example 45], the EC50 came to 0.008 µM on TEAD2 YAP50-100 and 0.043 µM at TEAD3 YAP50-100.

With `C[C@@H]1[C@H](CF)CN1C(=O)c1cnn2c(=O)cc(-c3ccc(C4CCCCC4)cc3)[nH]c12` (single isomer, unassigned) [Example 46], the EC50 on TEAD2 YAP50-100 was found to be 0.755 µM; at TEAD3 YAP50-100, 3.1 µM.

For the compound `CCOC(=O)c1cnn2c(=O)cc(-c3ccc(C4CCC(F)(F)CC4)cc3)[nH]c12` [Example 1, Ethyl 5-(4-(4,4-difluorocyclohexyl)phenyl)-7-oxo-4,7-dihydropyrazolo[1,5-a]pyrimidine-3-carboxylate], the EC50 at TEAD2 YAP50-100 came to 0.263 µM; on TEAD3 YAP50-100, 0.041 µM.

For `CCOC(=O)c1cnn2c(=O)cc(-c3ccc(C4CCCC4)cc3)[nH]c12` [Example 2, Ethyl 5-(4-cyclopentylphenyl)-7-oxo-4,7-dihydropyrazolo[1,5-a]pyrimidine-3-carboxylate], the EC50 came out at 0.12 µM at TEAD2 YAP50-100 and 0.019 µM at TEAD3 YAP50-100.

Take `CN(C)C(=O)c1cnn2c(=O)cc(-c3ccc(C4CCCC4)cc3)[nH]c12` [Example 3, 5-(4-Cyclopentylphenyl)-N,N-dimethyl-7-oxo-4,7-dihydropyrazolo[1,5-a]pyrimidine-3-carboxamide]: the values for the EC50 on TEAD2 YAP50-100 and at TEAD3 YAP50-100 were 0.342 µM and 0.016 µM, respectively.

Regarding `CCOC(=O)c1cnn2c(=O)cc(-c3ccc(C4CCCCC4)cc3)[nH]c12` [Example 4, Ethyl 5-(4-cyclohexylphenyl)-7-oxo-4,7-dihydropyrazolo[1,5-a]pyrimidine-3-carboxylate], the EC50 amounted to 0.066 µM on TEAD2 YAP50-100 and 0.019 µM at TEAD3 YAP50-100.

Turning to `CN(CCO)C(=O)c1cnn2c(=O)cc(-c3ccc(C4CCCCC4)cc3)[nH]c12` [Example 5, 5-(4-cyclohexylphenyl)-N-(2-hydroxyethyl)-N-methyl-7-oxo-4,7-dihydropyrazolo[1,5-a]pyrimidine-3-carboxamide], the results for the EC50 at TEAD2 YAP50-100 and on TEAD3 YAP50-100 were 1.1 µM and 0.567 µM, respectively.

For `CCN(C)C(=O)c1cnn2c(=O)cc(-c3ccc(C4CCCCC4)cc3)[nH]c12` [Example 6, 5-(4-Cyclohexylphenyl)-N-ethyl-N-methyl-7-oxo-4,7-dihydropyrazolo[1,5-a]pyrimidine-3-carboxamide], the EC50 at TEAD2 YAP50-100 was 0.067 µM; at TEAD3 YAP50-100 it was 0.018 µM.

Take `CN(C)C(=O)c1cnn2c(=O)cc(-c3ccc(C4CCCCC4)cc3)[nH]c12` [Example 7, 5-(4-Cyclohexylphenyl)-N,N-dimethyl-7-oxo-4,7-dihydropyrazolo[1,5-a]pyrimidine-3-carboxamide]: the EC50 came to 0.087 µM at TEAD2 YAP50-100 and 0.018 µM on TEAD3 YAP50-100.

Take `O=C(c1cnn2c(=O)cc(-c3ccc(C4CCCCC4)cc3)[nH]c12)N1CCC1` [Example 8, 3-(Azetidine-1-carbonyl)-5-(4-cyclohexylphenyl)pyrazolo[1,5-a]pyrimidin-7(4H)-one]: the results for the EC50 on TEAD2 YAP50-100 and on TEAD3 YAP50-100 were 0.038 µM and 0.023 µM, respectively.

`CC1(O)CN(C(=O)c2cnn3c(=O)cc(-c4ccc(C5CCCCC5)cc4)[nH]c23)C1` [Example 9, 5-(4-Cyclohexylphenyl)-3-(3-hydroxy-3-methylazetidine-1-carbonyl)pyrazolo[1,5-a]pyrimidin-7(4H)-one]: the EC50 worked out at 0.333 µM on TEAD2 YAP50-100 and 1.3 µM at TEAD3 YAP50-100.

On to `O=C(c1cnn2c(=O)cc(-c3ccc(C4CCCCC4)cc3)[nH]c12)N1CC(O)C1` [Example 10, 5-(4-Cyclohexylphenyl)-3-(3-hydroxyazetidine-1-carbonyl)pyrazolo[1,5-a]pyrimidin-7(4H)-one], for which the EC50 at TEAD2 YAP50-100 was 0.548 µM; at TEAD3 YAP50-100, 0.072 µM.

In the case of `CC1CN(C(=O)c2cnn3c(=O)cc(-c4ccc(C5CCCCC5)cc4)[nH]c23)C1` [Example 11, 5-(4-Cyclohexylphenyl)-3-(3-methylazetidine-1-carbonyl)pyrazolo[1,5-a]pyrimidin-7(4H)-one], the figures for the EC50 on TEAD2 YAP50-100 and at TEAD3 YAP50-100 were 0.011 µM and 0.032 µM, respectively.

`O=C(c1cnn2c(=O)cc(-c3ccc(C4CCCCC4)cc3)[nH]c12)N1CC(F)(F)C1` [Example 12, 5-(4-Cyclohexylphenyl)-3-(3,3-difluoroazetidine-1-carbonyl)pyrazolo[1,5-a]pyrimidin-7(4H)-one]: the EC50 was 0.068 µM at TEAD2 YAP50-100 and 0.056 µM on TEAD3 YAP50-100.

In the case of `CCOC(=O)c1cnn2c(=O)cc(-c3ccc(OC4CCCCC4)cc3)[nH]c12` [Example 13, Ethyl 5-(4-(Cyclohexyloxy)phenyl)-7-oxo-4,7-dihydropyrazolo[1,5-a]pyrimidine-3-carboxylate], the EC50 at TEAD2 YAP50-100 came out at 0.793 µM; at TEAD3 YAP50-100 it was 0.066 µM.

Turning to `CCOC(=O)c1cnn2c(=O)cc(-c3ccc(Oc4ccccc4)c(C)c3)[nH]c12` [Example 14, Ethyl 5-(3-methyl-4-phenoxyphenyl)-7-oxo-4,7-dihydropyrazolo[1,5-a]pyrimidine-3-carboxylate], the figures for the EC50 on TEAD2 YAP50-100 and on TEAD3 YAP50-100 were 0.747 µM and 0.666 µM, respectively.

For `CCOC(=O)c1cnn2c(=O)cc(-c3ccc(Oc4ccccc4)cc3)[nH]c12` [Example 15, Ethyl 7-oxo-5-(4-phenoxyphenyl)-4,7-dihydropyrazolo[1,5-a]pyrimidine-3-carboxylate], the EC50 on TEAD2 YAP50-100 was 0.836 µM; on TEAD3 YAP50-100 it was 0.532 µM.

With `CN(C)C(=O)c1cnn2c(=O)cc(-c3ccc(Oc4ccccc4)cc3)[nH]c12` [Example 16, /VA-Dimethyl-7-oxo-5-(4-phenoxyphenyl)-4,7-dihydropyrazolo[1,5-a]pyrimidine-3-carboxamide], the EC50 at TEAD2 YAP50-100 was found to be 0.501 µM; on TEAD3 YAP50-100, 1.11 µM.

For `CCNC(=O)c1cnn2c(=O)cc(-c3ccc(Oc4ccccc4)cc3)[nH]c12` [Example 17, N-Ethyl-7-oxo-5-(4-phenoxyphenyl)-4,7-dihydropyrazolo[1,5-a]pyrimidine-3-carboxamide], the values for the EC50 on TEAD2 YAP50-100 and at TEAD3 YAP50-100 were 0.055 µM and 5 µM, respectively.

On to `CCOC(=O)c1cnn2c(=O)cc(-c3ccc(N4CCCCC4)cc3)[nH]c12` [Example 18, Ethyl 7-oxo-5-(4-(piperidin-1-yl)phenyl)-4,7-dihydropyrazolo[1,5-a]pyrimidine-3-carboxylate], for which the EC50 was determined as 7.35 µM at TEAD2 YAP50-100 and 0.239 µM at TEAD3 YAP50-100.

For the compound `CCOC(=O)c1cnn2c(=O)cc(-c3ccc(C(F)(F)F)cc3)[nH]c12` [Example 23, Ethyl 7-oxo-5-(4-(trifluoromethyl)phenyl)-4,7-dihydropyrazolo[1,5-a]pyrimidine-3-carboxylate], the 50% effective concentration (EC50) at TEAD2 YAP50-100 was 1.78 µM; on TEAD3 YAP50-100 it was 0.834 µM.
